Like-named read-outs stand apart in the source and are kept apart here.
How the values were obtained:
[1] = for adduct degradation, times more slowly than the POBN--OOH and PBN--OOH adducts: organic medium (DMF, pyridine), relative to POBN--OOH and PBN--OOH
Description: The adducts from trapping with the superoxide radical were produced using the lumiflavin-DTPA system in pyridine, or dimethylformamide. This contains […] of DTPA, […] of lumiflavin and 0.1M of nitrone in pyridine or dimethylformamide.
The operating procedure followed for the study of the decrease of the adduct from trapping is the same as above.

[2] = cerebral ischaemia-reperfusion or cerebral aging; cited from earlier work
[3] = EPR spin trapping of O2^.-/HOO^. radicals (hypoxanthine/xanthine oxidase system); details: for EPR detection of trapping adduct: HOO^. radicals, hypoxanthine/xanthine oxidase, 0.1M phosphate buffer
Experimental: For the production of the HOO^. radicals the hypoxanthine/xanthine oxidase system is employed in a 0.1M phosphate buffer maintained at ambient temperature. The oxygen resulting in the formation of the HOO^. radicals is that initially dissolved in the 0.1M phosphate buffer.
The hypoxanthine/xanthine oxidase system contains 0.1M of a phosphate buffer, […] of hypoxanthine, 1 mM of diethylenetriaminepentaacetic acid (DTPA), 0.4 units cm^-3 of xanthine oxidase (marketed by the company Boehringer Mannheim Biochemica Co.), and 0.1M of the nitrone being tested. The EPR spectra of the adducts from trapping are recorded approximately 40 s after the addition of xanthine oxidase.
(§1) The stability of these adducts makes it possible to measure the respective coupling constants of the unpaired electron with the nuclei of nitrogen (AN), of hydrogen β to the nitrogen atom (AH) and of phosphorus (AP). These values have been shown together in Table 3 which follows: […]

[4] = EPR spin trapping of HO^. radicals (Fenton's method); details: phosphate buffer pH=7
Experimental: In this experiment the HO^. radicals were produced by Fenton's method in a 1.1M phosphate buffer at pH=7 in the presence of the […] system. This classical reaction for producing HO^. radicals can be expressed more simply as follows:
H2 O2 +Fe(II)→HO^. +HO-+Fe(III).
The EPR spectrum of the adduct from trapping is recorded approximately 40 s after addition of the ferrous sulphate.
as §1

physchem = details: for lipophilic/hydrophilic character: from partition coefficients, n-octanol/phosphate buffer; for logD at 1 h: n-octanol/10 mm phosphate buffer, pH 7.4
Experimental: Biol. Med. 14 (1993) 127. The partition coefficients are defined simply as the ratio of the nitrone concentration in the lipophilic phase (n-octanol) to the nitrone concentration in the aqueous phase.
Identical volumes (2 cm^3) of the octanolic nitrone solution prepared above and of a 10 mM phosphate buffer of pH=7.4 are agitated vigorously at 37° C. for 1 hour and the two phases are then separated by centrifuging (1000 g for 20 s) . The respective nitrone concentrations in each phase are then measured.

[5] = Kinetics of decomposition (EPR) of superoxide trapping adducts (nitrone-OOH) in phosphate buffer medium; details: for Half-life time: decay of nitrone-OOH adduct, 0.1M phosphate buffer pH=5.8; for order of kinetics of disappearance of the adducts: phosphate buffer pH=5.8; for adduct degradation, times less quickly than the POBN--OOH adducts: phosphate buffer, relative to POBN--OOH
Description: The adducts from trapping with the superoxide radical were produced using the riboflavin-DTPA (diethylenetriaminepentaacetic acid) system.
This system contains 1M of DTPA, […] of riboflavin and 0.1M of nitrone in a 0.1M phosphate buffer at pH=5.8.
This mixture is transferred into the cell of a Varian E-9 spectrometer. The cell is then irradiated to generate the superoxide radical in situ. At the end of irradiation the decrease in the adducts (nitrone-OOH) is studied using EPR analysis.

For `CC(C)(C)[N+]([O-])=Cc1ccccc1` [PBN, α-phenyl-tert-butylnitrone, reference compound], the Half-life time ([1]; DMF) is listed as 4.18 min, the Half-life time ([1]; pyridine) is listed as 4.42 min and the “reversal of the harmful effects of oxygen-containing free radicals” value [2] is listed as “particularly effective”. For the same compound, the “detection of the radical O2^.-” value ([3]; EPR spin trapping) was “cannot be carried out”, the “EPR detection of trapping adduct” value [3] was “No signal could be detected” and the “EPR detection of trapping adduct” value [4] was “No signal could be detected”.

With `CCOP(=O)(OCC)C(C)(C)[N+]([O-])=Cc1ccc(Cl)cc1` [Example 4, Diethyl 1-[[N-(4-chlorophenyl)formylene]-N-oxyamino]-1-methylethylphosphonate] the lipophilic/hydrophilic character (physchem) was “hydrophilic”, the logD at 1 h (physchem) was -0.745 and the Half-life time ([1]; DMF) was 15.2 min. For the same compound, the “adduct degradation, times more slowly than the POBN--OOH and PBN--OOH adducts” value [1] was “approximately three”, the Half-life time ([1]; pyridine) was 20.17 min and the k ([1]; pyridine) was 0.573 ± 0.001 10^3 s^-1.

For `CCOP(=O)(OCC)C(C)(C)[N+]([O-])=Cc1cc[n+]([O-])cc1` [Example 2, Diethyl 1-[N-oxy-N-[4-(N'-oxypyridyl)formylene]amino]-1-methylethylphosphonate], the lipophilic/hydrophilic character (physchem) was “lipophilic”, the logD at 1 h (physchem) was 2.29 and the Half-life time ([1]; DMF) was 16.2 min. For the same compound, the k ([1]; DMF) was 0.714 ± 0.007 10^3 s^-1, the “adduct degradation, times more slowly than the POBN--OOH and PBN--OOH adducts” value [1] was “approximately three” and the Half-life time ([1]; pyridine) was 21.05 min. For the same compound, the k ([1]; pyridine) was 0.549 ± 0.003 10^3 s^-1, the Half-life time [5] was 7.08 min and the “order of kinetics of disappearance of the adducts” value (from here on “order”) [5] was “first order”. For the same compound, the “adduct degradation, times less quickly than the POBN--OOH adducts” value [5] was “approximately 20 times”.

With `CCOP(=O)(OCC)C(C)(C)[N+]([O-])=Cc1ccccc1` [Example 1, Diethyl 1-(N-benzylidene-N-oxy)amino-1-methylethyl-phosphonate] the “EPR detection of trapping adduct” value [3] was “formation of the adducts”, the Half-life time [5] was 5.12 min and the “order” value [5] was “first order”. For the same compound, the “adduct degradation, times less quickly than the POBN--OOH adducts” value [5] was “approximately 20 times” and the “EPR detection of trapping adduct” value [4] was “formation of the adducts”.

`CC(C)(C)[N+]([O-])=Cc1cc[n+]([O-])cc1` [POBN, α-(1-oxydopyridin-1-ium-4-yl)-N-tert-butylnitrone, reference compound] showed a Half-life time ([1]; DMF) of 5.05 min, a Half-life time ([1]; pyridine) of 5.23 min and a Half-life time [5] of 0.317 min. For the same compound, the “order” value [5] was “first order”.
